Earlier results on one substance are cited in patent US20250082671A1, “ANIMAL FEED ADDITIVE COMPOSITION, PRE-MIX FEED COMPOSITION AND MANUFACTURING METHOD FOR SUB CLINICAL HYPCALCEMIA RELIEF, ENERGY IMPROVEMENT AND INCREASED MILK PRODUCTION” (Chemlock Metals Corp., priority 2023, published 2025).

The test system of the data set is cows. As to conditions: multiparous cows compared to un-supplemented ones.

For the substance chromium propionate complex, the “dry matter intake (DMI)” value was “on average higher”.
